Reference: patent publication US10993933B2, “Oral dosage forms of bendamustine” (ASTELLAS DEUTSCHLAND GMBH, priority 2010, dated 2021)

Key:
[1] = Phase 1 crossover study, urine pharmacokinetics (Example 8); type: in vivo, human; details: for % Aeinf / % Aelast / Aeinf / Aelast / CLR: M3 in urine
Excerpt: Urine pharmacokinetic parameters of bendamustine, M3 and M4 are presented in Table 27, Table 28 and Table 29, respectively. The percentage of the dose excreted in urine unchanged was low (2.6% and 2.1% for oral and intravenous bendamustine, respectively).

[2] = Phase 1 crossover study, plasma pharmacokinetics after oral and i.v. bendamustine (Example 8); details: for AUCinf / AUClast / Cmax / t1/2 / tmax: M3 in plasma, mean, n=11
Protocol: An open label, randomized two-way crossover study to assess the absolute bioavailability of oral bendamustine in patients with cancer was conducted to assess the absolute bioavailability of bendamustine administered as an oral formulation (example 2). Besides assessing the pharmacokinetics of bendamustine in plasma following oral and i.v. administration, a further objective was to evaluate the safety and tolerability of bendamustine following i.v. and especially oral administration of the formulation of example 2.
14 patients who were suffering from multiple myeloma, B-cell type chronic lymphocytic leukemia or advanced indolent non-Hodgkin's lymphoma were enrolled and were treated with bendamustine. […] After signing the informed consent form and following the screening period (days −21 to −2), eligible patients were assigned a patient number which was specific for each study site. Patients were randomized to receive one of the following on day 1 followed by the other on day 8: • a single oral dose of 110.2 mg (2×55.1 mg) bendamustine HCl • a single intravenous dose of 100 mg bendamustine HCl
Bendamustine was provided a) orally as capsules, a LFHC formulation (liquid-filled, hard-shell capsule) and b) intravenously as a solution after reconstituting a powder for the preparation of a solution for injection. The LFHC formulation (per capsule) was prepared from 55.1 mg bendamustine hydrochloride, 1.2 mg methylparaben, 0.12 mg […], 0.12 mg butylated hydroxytoluene, 10.9 mg ethanol and 532.56 mg CREMOPHOR RH40. The vial with powder for concentrate for solution was the marketed product in Germany (RIBOMUSTINE) which contains per vial 100 mg of bendamustine hydrochloride and mannitol as an excipient. This product was reconstituted with water for injection to a final concentration of 2.5 mg/ml of bendamustine HCl and was further diluted with 0.9% NaCl until about 500 ml before administration to the patient, in accordance with the instructions of the package insert.
Patients were admitted to the study site for 2 periods; days −1 to 2 (period 1) and days 7 to 9 (period 2). A total of 12 patients was to be randomized to receive treatment. Six patients were to receive treatment with a single oral dose of 110.2 mg (2×55.1 mg) bendamustine HCl (day 1) followed by a single intravenous dose of 100 mg bendamustine HCl (day 8) while 6 other patients were to receive treatment in the alternate order. Patients underwent a washout period of at least 7 days between treatments.
After oral and intravenous administration of bendamustine the concentration of bendamustine, as well as that of the active metabolites of bendamustine (M3 and M4), were determined in plasma and urine samples on day 1 and day 8. Patients returned to the study site for an end-of-study visit 7 to 14 days after completion of the second treatment period, or after early discharge/withdrawal. Subsequently the pharmacokinetic parameters of bendamustine and its metabolites were calculated.

[3] = Bendamustine HCl 100 mg intravenously, mean, n=11
[4] = Bendamustine HCl 100 mg intravenously, median, n=11
[5] = Bendamustine HCl 100 mg intravenously, min-max, n=11
[6] = Bendamustine HCl 110.2 mg orally, mean, n=10
[7] = Bendamustine HCl 110.2 mg orally, median, n=10
[8] = Bendamustine HCl 110.2 mg orally, min-max, n=10
[9] = Bendamustine HCl 100 mg intravenously
[10] = Bendamustine HCl 110.2 mg orally

Cn1c(C(O)CCC(=O)O)nc2cc(N(CCCl)CCCl)ccc21 (centres unmarked) [Batch M3, γ-hydroxybendamustine]
% Aeinf [1, 3]: 0.459%
% Aelast [1, 3]: 0.457%
Aeinf [1, 3]: 0.435 mg
Aelast [1, 3]: 0.433 mg
CLR [1, 3]: 1.29 L/h
% Aeinf [1, 4]: 0.354%
% Aelast [1, 4]: 0.353%
Aeinf [1, 4]: 0.336 mg
Aelast [1, 4]: 0.334 mg
CLR [1, 4]: 0.856 L/h
% Aeinf [1, 5]: 0.018-1.6%
% Aelast [1, 5]: 0.018-1.6%
Aeinf [1, 5]: 0.017 to 1.6 mg
Aelast [1, 5]: 0.017 to 1.5 mg
CLR [1, 5]: 0.082 to 5.2 L/h
% Aeinf [1, 6]: 0.611%
% Aelast [1, 6]: 0.61%
Aeinf [1, 6]: 0.636 mg
Aelast [1, 6]: 0.635 mg
CLR [1, 6]: 2.14 L/h
% Aeinf [1, 7]: 0.537%
% Aelast [1, 7]: 0.553%
Aeinf [1, 7]: 0.558 mg
Aelast [1, 7]: 0.576 mg
CLR [1, 7]: 1.49 L/h
% Aeinf [1, 8]: 0.13-1.5%
% Aelast [1, 8]: 0.12-1.6%
Aeinf [1, 8]: 0.13 to 1.6 mg
Aelast [1, 8]: 0.13 to 1.7 mg
CLR [1, 8]: 0.45 to 7.4 L/h
percentage of the dose excreted in urine as metabolite ([1]; patients, oral administration): 0.6%
AUCinf [2, 9]: 372 ng·h/mL
AUClast [2, 9]: 370 ng·h/mL
Cmax [2, 9]: 344 ng/mL
t1/2 [2, 9]: 43.6 min
tmax [2, 9]: 49.4 min
AUCinf [2, 10]: 369 ng·h/mL
AUClast [2, 10]: 367 ng·h/mL
Cmax [2, 10]: 243 ng/mL
t1/2 [2, 10]: 38.6 min
tmax [2, 10]: 76.2 min
Mean AUCinf of bendamustine relative to that of the metabolite (times higher) ([2]; patients, oral administration): 10.6 times
exposure relative to that of bendamustine ([2]; patients, oral administration): approximately 9%
AUCinf after oral administration as % of AUCinf after intravenous administration ([2]; patients, 90% CI M3: 76%, 98%, M4: 77%, 102%): 86%
